Experimental data as given in patent US10660877B2 (BRISTOL-MYERS SQUIBB COMPANY, priority 2016, dated 2020).
Where two headings read alike, the source gives them in different places.

What was measured:
human TLR7 = human TLR7 (Homo sapiens (Human), UniProt Q9NYK1); assay: TLR7 inhibition reporter assay (HEK-Blue cells, SEAP reporter, gardiquimod stimulation); assay type: cell-based; details: HEK-Blue cells overexpressing human TLR7, gardiquimod 7.5 μM
Description: TLR7/8/9 Inhibition Reporter Assays
Briefly, cells are seeded into Greiner 384 well plates (15000 cells per well for TLR7, 20,000 for TLR8 and 25,000 for TLR9) and then treated with test compounds in DMSO to yield a final dose response concentration range of 0.05 nM-50 μM. […] After a 22 hour incubation at 37° C., 5% CO2, SEAP levels are determined with the addition of HEK-Blue™ Detection reagent (Invivogen), a cell culture medium that allows for detection of SEAP, according to manufacturer's specifications. The percent inhibition is determined as the % reduction in the HEK-Blue signal present in wells treated with agonist plus DMSO alone compared to wells treated with a known inhibitor.

human TLR8 = human TLR8 (Homo sapiens (Human), UniProt Q9NR97); assay: TLR8 inhibition reporter assay (HEK-Blue cells, SEAP reporter, R848 stimulation);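 note: compounds tested from 0.05 nM to 50 µM, 22 h at 37 °C, SEAP measured with HEK-Blue Detection, inhibition relative to agonist plus DMSO versus a known inhibitor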
human TLR9 = human TLR9 (Homo sapiens (Human), UniProt Q9NR96); assay: TLR9 inhibition reporter assay (HEK-Blue cells, SEAP reporter, ODN2006 stimulation);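 note: compounds tested over 0.05 nM to 50 µM, 22 h incubation, inhibition taken as SEAP signal drop from agonist plus DMSO wells toward a known inhibitor control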
[1] = read-out: TLR8 IC50, HEK-Blue cells overexpressing human TLR8, R848 15.9 μM
[2] = read-out: TLR9 IC50, HEK-Blue cells overexpressing human TLR9, ODN2006 5 nM
[3] = TLR8 IC50, HEK-Blue cells overexpressing human TLR8, R848 15.9 μM
[4] = TLR9 IC50, HEK-Blue cells overexpressing human TLR9, ODN2006 5 nM

human TLR7, sequence (Q9NYK1 27-1049): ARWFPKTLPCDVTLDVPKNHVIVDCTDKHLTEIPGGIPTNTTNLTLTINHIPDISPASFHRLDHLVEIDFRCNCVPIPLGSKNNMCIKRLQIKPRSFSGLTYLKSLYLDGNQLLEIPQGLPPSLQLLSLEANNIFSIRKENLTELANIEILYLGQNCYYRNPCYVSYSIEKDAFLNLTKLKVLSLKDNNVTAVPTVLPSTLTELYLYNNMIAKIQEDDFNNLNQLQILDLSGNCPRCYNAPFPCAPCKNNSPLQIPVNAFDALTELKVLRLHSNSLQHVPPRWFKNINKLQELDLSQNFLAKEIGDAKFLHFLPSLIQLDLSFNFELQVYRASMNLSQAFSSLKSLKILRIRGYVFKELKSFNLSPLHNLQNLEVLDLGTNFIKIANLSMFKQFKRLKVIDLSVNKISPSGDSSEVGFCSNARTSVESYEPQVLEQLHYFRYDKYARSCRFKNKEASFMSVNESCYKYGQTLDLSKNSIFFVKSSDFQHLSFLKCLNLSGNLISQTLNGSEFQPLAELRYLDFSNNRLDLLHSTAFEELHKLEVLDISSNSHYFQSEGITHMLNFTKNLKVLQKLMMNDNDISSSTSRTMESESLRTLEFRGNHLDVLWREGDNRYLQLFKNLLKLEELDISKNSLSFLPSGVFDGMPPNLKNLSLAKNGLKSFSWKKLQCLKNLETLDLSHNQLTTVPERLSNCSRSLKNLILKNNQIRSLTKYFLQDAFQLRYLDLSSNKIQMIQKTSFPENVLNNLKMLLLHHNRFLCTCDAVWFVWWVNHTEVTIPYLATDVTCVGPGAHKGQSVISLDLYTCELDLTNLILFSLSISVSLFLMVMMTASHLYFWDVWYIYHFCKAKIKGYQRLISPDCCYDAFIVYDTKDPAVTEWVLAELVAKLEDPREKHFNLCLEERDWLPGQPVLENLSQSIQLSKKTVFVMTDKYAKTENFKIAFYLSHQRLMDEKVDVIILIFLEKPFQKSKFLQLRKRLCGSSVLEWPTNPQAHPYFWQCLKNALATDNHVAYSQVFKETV
human TLR9, sequence (Q9NR96 26-1032): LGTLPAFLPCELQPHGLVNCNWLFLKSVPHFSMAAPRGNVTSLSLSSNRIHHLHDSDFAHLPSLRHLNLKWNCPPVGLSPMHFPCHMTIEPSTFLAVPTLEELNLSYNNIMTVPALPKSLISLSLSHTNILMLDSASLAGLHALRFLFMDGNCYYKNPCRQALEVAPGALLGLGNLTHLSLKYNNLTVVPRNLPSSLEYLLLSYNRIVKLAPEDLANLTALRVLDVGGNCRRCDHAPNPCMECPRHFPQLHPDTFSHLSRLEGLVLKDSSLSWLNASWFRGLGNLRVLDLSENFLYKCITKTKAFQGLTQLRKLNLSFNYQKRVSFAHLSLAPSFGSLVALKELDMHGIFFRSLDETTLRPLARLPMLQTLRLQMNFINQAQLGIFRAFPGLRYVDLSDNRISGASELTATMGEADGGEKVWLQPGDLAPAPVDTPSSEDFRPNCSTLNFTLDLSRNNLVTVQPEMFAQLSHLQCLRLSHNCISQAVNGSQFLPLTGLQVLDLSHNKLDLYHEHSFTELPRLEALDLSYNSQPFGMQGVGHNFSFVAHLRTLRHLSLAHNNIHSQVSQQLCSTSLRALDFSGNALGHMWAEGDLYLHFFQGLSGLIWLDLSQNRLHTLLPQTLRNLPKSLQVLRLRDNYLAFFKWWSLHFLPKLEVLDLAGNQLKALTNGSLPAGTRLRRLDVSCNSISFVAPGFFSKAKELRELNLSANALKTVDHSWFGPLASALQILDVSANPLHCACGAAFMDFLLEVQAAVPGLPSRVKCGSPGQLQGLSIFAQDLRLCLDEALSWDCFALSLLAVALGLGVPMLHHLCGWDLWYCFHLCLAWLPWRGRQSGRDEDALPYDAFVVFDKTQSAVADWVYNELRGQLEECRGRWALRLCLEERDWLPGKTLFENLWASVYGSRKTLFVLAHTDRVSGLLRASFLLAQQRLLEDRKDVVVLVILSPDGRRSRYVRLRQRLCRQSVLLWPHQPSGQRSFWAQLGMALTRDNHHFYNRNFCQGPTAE
human TLR8, sequence (Q9NR97 27-1041): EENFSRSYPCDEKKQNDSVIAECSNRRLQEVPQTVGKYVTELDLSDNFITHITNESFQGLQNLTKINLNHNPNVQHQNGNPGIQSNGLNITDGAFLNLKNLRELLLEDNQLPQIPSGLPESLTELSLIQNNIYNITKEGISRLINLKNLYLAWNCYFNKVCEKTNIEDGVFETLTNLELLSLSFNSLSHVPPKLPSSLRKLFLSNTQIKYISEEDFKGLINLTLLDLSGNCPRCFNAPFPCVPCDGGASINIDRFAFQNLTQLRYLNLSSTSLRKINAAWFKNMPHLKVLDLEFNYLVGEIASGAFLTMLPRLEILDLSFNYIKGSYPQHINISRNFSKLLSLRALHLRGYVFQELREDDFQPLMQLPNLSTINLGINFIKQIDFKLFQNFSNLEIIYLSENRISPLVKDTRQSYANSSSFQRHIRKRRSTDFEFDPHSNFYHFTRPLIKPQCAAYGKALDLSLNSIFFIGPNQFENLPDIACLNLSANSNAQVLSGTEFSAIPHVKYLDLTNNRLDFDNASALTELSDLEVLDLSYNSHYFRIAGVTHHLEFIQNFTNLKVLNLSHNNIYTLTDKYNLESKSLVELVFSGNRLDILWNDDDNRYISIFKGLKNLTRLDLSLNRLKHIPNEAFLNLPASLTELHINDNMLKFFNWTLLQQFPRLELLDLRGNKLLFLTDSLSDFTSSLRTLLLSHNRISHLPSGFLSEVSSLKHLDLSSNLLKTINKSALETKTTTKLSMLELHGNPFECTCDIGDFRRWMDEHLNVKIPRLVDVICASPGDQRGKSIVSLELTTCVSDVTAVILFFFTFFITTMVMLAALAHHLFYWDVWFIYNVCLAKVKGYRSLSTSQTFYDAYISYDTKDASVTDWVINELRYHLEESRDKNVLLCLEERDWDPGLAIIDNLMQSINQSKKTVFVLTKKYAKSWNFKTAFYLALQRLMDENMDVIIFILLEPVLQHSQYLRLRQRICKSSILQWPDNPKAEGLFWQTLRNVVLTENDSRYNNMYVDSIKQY

Cc1cc(-c2[nH]c3ccc(C4CCN(C(=O)CN5CCC(F)CC5)CC4)cc3c2C(C)C)cc(C)n1 [Example 388, 1-(4-(2-(2,6-dimethylpyridin-4-yl)-3-isopropyl-1H-indol-5-yl)piperidin-1-yl)-2-(4-fluoropiperidin-1-yl)ethan-1-one]
IC50 (human TLR7): 4.3 nM | IC50 (human TLR8; [1]): 20.9 nM | IC50 (human TLR9; [2]): 831 nM

Cc1cc(-c2[nH]c3ccc(C4CCN(C(=O)C5(N)COC5)CC4)cc3c2C(C)C)ccn1 [Example 634, (3-aminooxetan-3-yl)(4-(3-isopropyl-2-(2-methylpyridin-4-yl)-1H-indol-5-yl)piperidin-1-yl)methanone]
IC50 (human TLR7): 73.5 nM | IC50 (human TLR8; [1]): 223 nM | IC50 (human TLR9; [2]): > 50000 nM

Cc1cc(-c2[nH]c3ccc(C4CCNCC4)cc3c2C(C)C)c(F)c(C)n1 [Example 51, 2-(3-fluoro-2,6-dimethylpyridin-4-yl)-3-isopropyl-5-(piperidin-4-yl)-1H-indole]
IC50 (human TLR7): 1 nM | IC50 (human TLR8; [1]): 2.5 nM | IC50 (human TLR9; [2]): 775 nM

CC(=O)N1CCC(c2ccc3[nH]c(-c4cc(C)ncc4C)c(C(C)C)c3c2)CC1 [Example 584, 1-(4-(2-(2,5-dimethylpyridin-4-yl)-3-isopropyl-1H-indol-5-yl)piperidin-1-yl)ethan-1-one]
IC50 (human TLR7): 43 nM | IC50 (human TLR8; [1]): 45.9 nM | IC50 (human TLR9; [2]): > 50000 nM

Cc1cc(-c2[nH]c3ccc(C4CCN(Cc5cc(C)on5)CC4)cc3c2C(C)C)c(C)cn1 [Example 685, 3-((4-(2-(2,5-dimethylpyridin-4-yl)-3-isopropyl-1H-indol-5-yl)piperidin-1-yl)methyl)-5-methylisoxazole]
IC50 (human TLR7): 62.5 nM | IC50 (human TLR8; [1]): 3.4 nM | IC50 (human TLR9; [2]): 7510 nM

Cc1cc(-c2[nH]c3ccc(C4CCN(C(=O)CN5C[C@@H](O)CC5=O)CC4)cc3c2C(C)C)cc(C)n1 [Example 169, (S)-1-(2-(4-(2-(2,6-dimethylpyridin-4-yl)-3-isopropyl-1H-indol-5-yl)piperidin-1-yl)-2-oxoethyl)-4-hydroxypyrrolidin-2-one]
IC50 (human TLR7): 11.7 nM | IC50 (human TLR8; [1]): 73.7 nM | IC50 (human TLR9; [2]): > 50000 nM

Cc1cc(-c2[nH]c3ccc(C4CCN(CC(=O)NCCC(C)C)CC4)cc3c2C(C)C)cc(C)n1 [Example 237, 2-(4-(2-(2,6-dimethylpyridin-4-yl)-3-isopropyl-1H-indol-5-yl)piperidin-1-yl)-N-isopentylacetamide]
IC50 (human TLR7): 24.9 nM | IC50 (human TLR8; [1]): 51.1 nM | IC50 (human TLR9; [2]): 1890 nM

CCc1c(-c2ccnc(C)c2)[nH]c2ccc(C3CCN(C(=O)C4CCNC4)CC3)cc12 (stereo not drawn) [Example 595, (4-(3-ethyl-2-(2-methylpyridin-4-yl)-1H-indol-5-yl)piperidin-1-yl)(pyrrolidin-3-yl)methanone]
IC50 (human TLR7): 84.7 nM | IC50 (human TLR8; [1]): 32.7 nM | IC50 (human TLR9; [2]): 348 nM

Cc1cc(-c2[nH]c3ccc(C4CCN(C)CC4)cc3c2C(C)C)c(F)cn1 [Example 635, 2-(5-fluoro-2-methylpyridin-4-yl)-3-isopropyl-5-(1-methylpiperidin-4-yl)-1H-indole]
IC50 (human TLR7): 5.6 nM | IC50 (human TLR8; [1]): 5.1 nM | IC50 (human TLR9; [2]): 3690 nM

Cc1cc(-c2[nH]c3ccc(C4CCN(Cc5c[nH]cn5)CC4)cc3c2CC(F)F)cc(C)n1 [Example 537, 5-(1-((1H-imidazol-4-yl)methyl)piperidin-4-yl)-3-(2,2-difluoroethyl)-2-(2,6-dimethylpyridin-4-yl)-1H-indole]
IC50 (human TLR7): 36.2 nM | IC50 (human TLR8; [1]): 53.3 nM | IC50 (human TLR9; [2]): 32 nM

Cc1cc(-c2[nH]c3ccc(C4CCN(C(=O)c5c(C)nn(C)c5C)CC4)cc3c2C(C)C)cc(C)n1 [Example 131, (4-(2-(2,6-dimethylpyridin-4-yl)-3-isopropyl-1H-indol-5-yl)piperidin-1-yl)(1,3,5-trimethyl-1H-pyrazol-4-yl)methanone]
IC50 (human TLR7): 12 nM | IC50 (human TLR8; [1]): 77.1 nM | IC50 (human TLR9; [2]): 17500 nM

CNC(=O)CN1CCC(c2ccc3[nH]c(-c4ccnc(C)c4)c(C(C)C)c3c2)CC1 [Example 513]
IC50 (human TLR7): 13.5 nM | IC50 (human TLR8; [1]): 9.8 nM | IC50 (human TLR9; [2]): 2260 nM

Cc1cc(-c2[nH]c3ccc(C4CCN(C(=O)CN(C)CCC#N)CC4)cc3c2C(C)C)c(F)cn1 [Example 679, 3-((2-(4-(2-(5-fluoro-2-methylpyridin-4-yl)-3-isopropyl-1H-indol-5-yl)piperidin-1-yl)-2-oxoethyl)(methyl)amino)propanenitrile]
IC50 (human TLR7): 12.7 nM | IC50 (human TLR8; [1]): 19.8 nM | IC50 (human TLR9; [2]): 4380 nM

Cc1cc(-c2[nH]c3ccc(C4CCN(C5CCOCC5)CC4)cc3c2C(C)C)c(C)cn1 [Example 714, 2-(2,5-dimethylpyridin-4-yl)-3-isopropyl-5-(1-(tetrahydro-2H-pyran-4-yl)piperidin-4-yl)-1H-indole]
IC50 (human TLR7): 31.4 nM | IC50 (human TLR8; [1]): 2.7 nM | IC50 (human TLR9; [2]): 2210 nM

Cc1cc(-c2[nH]c3ccc(C4CCNCC4)cc3c2C(C)(C)C)ccn1 [Example 86, 3-(tert-butyl)-2-(2-methylpyridin-4-yl)-5-(piperidin-4-yl)-1H-indole]
IC50 (human TLR7): 23600 nM | IC50 (human TLR8; [1]): > 50000 nM | IC50 (human TLR9; [2]): 2550 nM

Cc1cc(-c2[nH]c3ccc(C4CCN(C(=O)CN5CCCC(C)(C)C5)CC4)cc3c2C(C)C)cc(C)n1 [Example 358, 2-(3,3-dimethylpiperidin-1-yl)-1-(4-(2-(2,6-dimethylpyridin-4-yl)-3-isopropyl-1H-indol-5-yl)piperidin-1-yl)ethan-1-one]
IC50 (human TLR7): 12.9 nM | IC50 (human TLR8; [1]): 23.7 nM | IC50 (human TLR9; [2]): 943 nM

Cc1cc(-c2[nH]c3ccc(C4CCN(C(=O)CN(C)C5CC5)CC4)cc3c2C(C)C)cc(C)n1 [Example 357, 2-(cyclopropyl(methyl)amino)-1-(4-(2-(2,6-dimethylpyridin-4-yl)-3-isopropyl-1H-indol-5-yl)piperidin-1-yl)ethan-1-one]
IC50 (human TLR7): 13.9 nM | IC50 (human TLR8; [1]): 104 nM | IC50 (human TLR9; [2]): 2350 nM

Cc1cc(-c2[nH]c3ccc(C4CCN(C(=O)[C@@H]5C[C@H](O)CCN5)CC4)cc3c2C(C)C)ccn1 [Example 581, ((2S,4R)-4-hydroxypiperidin-2-yl)(4-(3-isopropyl-2-(2-methylpyridin-4-yl)-1H-indol-5-yl)piperidin-1-yl)methanone]
IC50 (human TLR7): 10.6 nM | IC50 (human TLR8; [1]): 6.9 nM | IC50 (human TLR9; [2]): 967 nM

Cc1cc(-c2[nH]c3ccc(C4CCNCC4)cc3c2C(C)C)cc(C)[n+]1[O-] [Example 56, 2-(2,6-dimethyl-1-(l1-oxidanyl)-1l4-pyridin-4-yl)-3-isopropyl-5-(piperidin-4-yl)-1H-indole]
IC50 (human TLR7): 4.6 nM | IC50 (human TLR8; [1]): 23.9 nM | IC50 (human TLR9; [2]): 804 nM

CNC(=O)CN1CCC(c2ccc3[nH]c(-c4cc(C)ncc4C)c(C(C)C)c3c2)CC1 [Example 653, 2-(4-(2-(2,5-dimethylpyridin-4-yl)-3-isopropyl-1H-indol-5-yl)piperidin-1-yl)-N-methylacetamide]
IC50 (human TLR7): 13.9 nM | IC50 (human TLR8; [1]): 4.4 nM | IC50 (human TLR9; [2]): 4160 nM

COCCN1CCN(CC(=O)N2CCC(c3ccc4[nH]c(-c5cc(C)nc(C)c5)c(C(C)C)c4c3)CC2)CC1 [Example 372, 1-(4-(2-(2,6-dimethylpyridin-4-yl)-3-isopropyl-1H-indol-5-yl)piperidin-1-yl)-2-(4-(2-methoxyethyl)piperazin-1-yl)ethan-1-one]
IC50 (human TLR7): 1.9 nM | IC50 (human TLR8; [3]): 14.1 nM | IC50 (human TLR9; [4]): 602 nM

Cc1cc(-c2[nH]c3ccc(C4CCNCC4O)cc3c2C(C)C)cc(C)n1 (single isomer, unassigned) [Example 488A, 4-(2-(2,6-dimethylpyridin-4-yl)-3-isopropyl-1H-indol-5-yl)piperidin-3-ol]
IC50 (human TLR7): 2.7 nM | IC50 (human TLR8; [3]): 21 nM | IC50 (human TLR9; [4]): 240 nM

Cc1cc(-c2[nH]c3ccc(C4CCN(C(=O)Cn5ccc(C6CC6)n5)CC4)cc3c2C(C)C)cc(C)n1 [Example 162, 2-(3-cyclopropyl-1H-pyrazol-1-yl)-1-(4-(2-(2,6-dimethylpyridin-4-yl)-3-isopropyl-1H-indol-5-yl)piperidin-1-yl)ethan-1-one]
IC50 (human TLR7): 18.5 nM | IC50 (human TLR8; [1]): 129 nM | IC50 (human TLR9; [2]): 16200 nM

Cc1cc(-c2[nH]c3ccc(C4CCN(C5CCN(C(C)C)CC5)CC4)cc3c2C(C)C)ccn1 [Example 701, 3-isopropyl-5-(1′-isopropyl-[1,4′-bipiperidin]-4-yl)-2-(2-methylpyridin-4-yl)-1H-indole]
IC50 (human TLR7): 6.5 nM | IC50 (human TLR8; [1]): 5.8 nM | IC50 (human TLR9; [2]): 163 nM

Cc1cc(-c2[nH]c3ccc(C4CCN(Cc5c[nH]nn5)CC4)cc3c2C(C)C)c(C)cn1 [Example 690, 5-(1-((1H-1,2,3-triazol-4-yl)methyl)piperidin-4-yl)-2-(2,5-dimethylpyridin-4-yl)-3-isopropyl-1H-indole]
IC50 (human TLR7): 11 nM | IC50 (human TLR8; [1]): 1.9 nM | IC50 (human TLR9; [2]): 3510 nM

Cc1cc(-c2[nH]c3ccc(C4CCN(C(=O)CNC(CO)CC(C)C)CC4)cc3c2C(C)C)cc(C)n1 (stereo not drawn) [Example 382, 1-(4-(2-(2,6-dimethylpyridin-4-yl)-3-isopropyl-1H-indol-5-yl)piperidin-1-yl)-2-((1-hydroxy-4-methylpentan-2-yl)amino)ethan-1-one]
IC50 (human TLR7): 7.6 nM | IC50 (human TLR8; [1]): 44.1 nM | IC50 (human TLR9; [2]): 769 nM

Cc1cc(-c2[nH]c3ccc(C4CCN(CC#N)CC4)cc3c2C(C)C)cc(C)n1 [Example 312, 2-(4-(2-(2,6-dimethylpyridin-4-yl)-3-isopropyl-1H-indol-5-yl)piperidin-1-yl)acetonitrile]
IC50 (human TLR7): 5.4 nM | IC50 (human TLR8; [1]): 14 nM | IC50 (human TLR9; [2]): 1390 nM

Cc1cc(-c2[nH]c3cc(F)c(C4CCNCC4)cc3c2C(C)C)c(C)cn1 [Example 80, 2-(2,5-dimethylpyridin-4-yl)-6-fluoro-3-isopropyl-5-(piperidin-4-yl)-1H-indole]
IC50 (human TLR7): 2.7 nM | IC50 (human TLR8; [1]): 1.3 nM | IC50 (human TLR9; [2]): 583 nM

Cc1cc(-c2[nH]c3ccc(C4CCN(C(=O)CCN5CCOCC5)CC4)cc3c2C(C)C)c(F)cn1 [Example 657, 1-(4-(2-(5-fluoro-2-methylpyridin-4-yl)-3-isopropyl-1H-indol-5-yl)piperidin-1-yl)-3-morpholinopropan-1-one]
IC50 (human TLR7): 5.9 nM | IC50 (human TLR8; [1]): 5.3 nM | IC50 (human TLR9; [2]): 5680 nM
